The subject of the assay is KB. Nature of the assay: Cytotoxicity against human KB cells. It counts as functional.

In brackets after ≈: the same amount, converted by molar mass.

Regarding `CC(=O)O[C@@]12CO[C@@H]1C[C@H](O)[C@@]1(C)C(=O)C(=O)C3=C(C)[C@@H](OC(=O)[C@H](O)[C@@H](NC(=O)c4ccccc4)c4ccccc4)C[C@@](O)([C@@H](OC(=O)c4ccccc4)[C@H]21)C3(C)C`, under “Homo sapiens, KB, read-out: ED50 (the source's name)”, the EC50 worked out at 0.02 µg/mL (≈ 0.0247 µM).
Molecule `CC(=O)O[C@H]1C(=O)[C@]2(C)[C@H](O)C[C@H]3OC[C@@]3(OC(C)=O)[C@H]2[C@H](OC(=O)c2ccccc2)[C@]2(O)C[C@H](OC(=O)[C@H](O)[C@@H](NC(=O)c3ccccc3)c3ccccc3)C(C)=C1C2(C)C` showed an ED50 of 3 ×10⁻⁵ ug/ml.
Regarding `CC(=O)O[C@H]1C(=O)[C@@]2(C)[C@H]([C@H](OC(=O)c3ccccc3)[C@]3(O)C[C@H](OC(=O)[C@H](O)[C@@H](NC(=O)c4ccccc4)c4ccccc4)C(C)=C1C3(C)C)[C@]1(OC(C)=O)CO[C@@H]1C[C@@H]2O` [PACLITAXEL], the ED50 turned out to be 1 ×10⁻⁵ ug/ml.

The values above are taken from ChEMBL document CHEMBL1149015, “New taxanes from Taxus brevifolia, 2” (1986).
